Activity calls are given as the source filed them. The calls are words filed in the database; no cut-off is given here.

Series [1] in a line: Cytotoxicity against HFB4 cells assessed as decrease in cell viability after 24 hrs by MTT assay. The series is classed as toxicity, cell-based. The note with it: human.
A short description of series [2]: Cytotoxicity against human A549 cells assessed as decrease in cell viability after 24 hrs by MTT assay. In kind it is functional, cell-based. Particulars: A549, 24 h.
Series [3] in a line: Cytotoxicity against human PC3 cells assessed as decrease in cell viability after 24 hrs by MTT assay. The series is classed as functional, cell-based. Particulars: PC-3, 24 h. (Tetrazolium assays rely on reduction of a dye to a coloured formazan, in cell work by metabolically active cells.)
A short description of series [4]: Cytotoxicity against human HCT116 cells assessed as decrease in cell viability after 24 hrs by MTT assay. Particulars: HCT-116, 24 h. In kind it is functional, cell-based.
Series [5] has as its system A549. Kind of series: Effect on Bax expression in human A549 cells assessed as ratio of Bax to beta-actin mRNA level at 0.17 mM by qRT-PCR analysis (reference value: 9.0641). The series is classed as functional. (In general: Real-time PCR tracks product formation cycle by cycle.)
In series [6] the test system is A549. The series can be described thus: Effect on Bcl2 expression in human A549 cells assessed as ratio of Bcl-2 to beta-actin mRNA level at 0.17 mM by qRT-PCR analysis (reference value: 15.0312). In kind it is functional.
Series [7] has as its system A549. The series can be described thus: Induction of apoptosis in human A549 cells assessed as necrotic cells at 0.087 mM after 24 hrs by annexin V/propidium iodide double staining based flow cytometry (reference value: 0.02%). In kind it is functional. Background: In flow cytometry, cells or beads pass a laser one at a time.
The test system of series [8] is A549. Kind of series: Effect on caspase-3 expression in human A549 cells assessed as ratio of caspase-3 to beta-actin mRNA level at 0.17 mM by qRT-PCR analysis (reference value: 6.398). The series is classed as functional.
The subject of series [9] is A549. The series can be described thus: Induction of morphological changes in human A549 cells assessed as increased cellular granularity at 0.17 mM after 72 hrs by uranyl acetate/lead citrate staining based transmission electron microscopic imaging analysis. The series is classed as functional, cell-based.
The subject of series [10] is A549. The series can be described thus: Induction of morphological changes in human A549 cells assessed as change in mitochondrial number at 0.17 mM after 72 hrs by uranyl acetate/lead citrate staining based transmission electron microscopic imaging analysis. The series is classed as functional, cell-based.
Series [11] relates to A549. The series can be described thus: Induction of morphological changes in human A549 cells assessed as reduction in nucleus volume at 0.17 mM after 72 hrs by uranyl acetate/lead citrate staining based transmission electron microscopic imaging analysis. The series is classed as functional, cell-based.
Series [12] has as its system A549. The series can be described thus: Effect on p53 expression in human A549 cells assessed as ratio of p53 to beta-actin mRNA level at 0.17 mM by qRT-PCR analysis (reference value: 10.87). In kind it is functional.
Series [13] deals with A549. Kind of series: Induction of morphological changes in human A549 cells assessed as larger uplifted particles on cell surface at 0.087 mM after 24 hrs by atomic force microscopic imaging analysis. The series is classed as functional, cell-based.
The test system of series [14] is A549. Kind of series: Induction of morphological changes in human A549 cells assessed as nuclear chromatin condensation and margination at 0.17 mM after 72 hrs by uranyl acetate/lead citrate staining based transmission electron microscopic imaging analysis. The series is classed as functional, cell-based.
For series [15], the system named is A549. The series can be described thus: Induction of morphological changes in human A549 cells assessed as cell surface damage by measuring average roughness value at 0.087 mM after 24 hrs by atomic force microscopic imaging analysis (reference value: 1.11 micrometer). The series is classed as functional.
Series [16] has as its system A549. Kind of series: Induction of morphological changes in human A549 cells assessed as formation of membrane blebs at 0.17 mM after 72 hrs by uranyl acetate/lead citrate staining based transmission electron microscopic imaging analysis. The series is classed as functional, cell-based.
Series [17] relates to A549. Kind of series: Induction of apoptosis in human A549 cells assessed as necrotic cells at 0.17 mM after 48 hrs by annexin V/propidium iodide double staining based flow cytometry (reference value: 0%). In kind it is functional.
The test system of series [18] is A549. Kind of series: Induction of morphological changes in human A549 cells assessed as cell shrinkage at 0.17 mM after 72 hrs by uranyl acetate/lead citrate staining based transmission electron microscopic imaging analysis. The series is classed as functional.
Series [19] deals with A549. Kind of series: Induction of apoptosis in human A549 cells assessed as late apoptotic cells at 0.087 mM after 24 hrs by annexin V/propidium iodide double staining based flow cytometry (reference value: 0.21%). The series is classed as functional.
Series [20] deals with A549. Kind of series: Induction of morphological changes in human A549 cells assessed as large uplifted structures on cell surface by measuring average particle height at 0.087 mM after 24 hrs by atomic force microscopic imaging analysis (reference value: 0.144 micrometer). In kind it is functional.
For series [21], the system named is A549. The series can be described thus: Induction of apoptosis in human A549 cells assessed as increase in caspase-3 activity at 0.17 mM using Ac-DEVD-pNA as substrate after 48 hrs by colorimetric assay (reference value: 0.005). In kind it is functional.
The test system of series [22] is A549. Kind of series: Induction of morphological changes in human A549 cells assessed as large uplifted structures on cell surface by measuring particle length at 0.087 mM after 24 hrs by atomic force microscopic imaging analysis (reference value: 0.161 micrometer). The series is classed as functional.
The test system of series [23] is A549. Kind of series: Induction of apoptosis in human A549 cells assessed as viable cells at 0.087 mM after 24 hrs by annexin V/propidium iodide double staining based flow cytometry (reference value: 98.85%). In kind it is functional. Particulars: A549, 24 h, read-out: Activity.
Series [24] concerns A549. The series can be described thus: Induction of apoptosis in human A549 cells assessed as viable cells at 0.17 mM after 48 hrs by annexin V/propidium iodide double staining based flow cytometry (reference value: 98.6%). The series is classed as functional. The note with it: A549, 48 h, read-out: Activity.
A short description of series [25]: Cell cycle arrest in human A549 cells assessed as accumulation at G0/G1 phase at 0.087 mM after 24 hrs by propidium iodide staining based flow cytometry (reference value: 33.96%). In kind it is functional.
The test system of series [26] is A549. The series can be described thus: Induction of apoptosis in human A549 cells assessed as early apoptotic cells at 0.17 mM after 48 hrs by annexin V/propidium iodide double staining based flow cytometry (reference value: 1.27%). The series is classed as functional.
Series [27] can be described thus: Cell cycle arrest in human A549 cells assessed as accumulation at S phase at 0.087 mM after 24 hrs by propidium iodide staining based flow cytometry (reference value: 34.42%). The series is classed as functional.
The test system of series [28] is A549. The series can be described thus: Induction of morphological changes in human A549 cells assessed as formation of apoptotic bodies at 0.17 mM after 72 hrs by uranyl acetate/lead citrate staining based transmission electron microscopic imaging analysis. The series is classed as functional, cell-based.
In series [29] the test system is A549. Kind of series: Induction of morphological changes in human A549 cells assessed as large uplifted structures on cell surface by measuring particle width at 0.087 mM after 24 hrs by atomic force microscopic imaging analysis (reference value: 0.147 micrometer). The series is classed as functional.
In series [30] the test system is A549. Kind of series: Induction of morphological changes in human A549 cells assessed as small membrane protrusions on cell surface at 0.087 mM after 24 hrs by atomic force microscopic imaging analysis. In kind it is functional, cell-based.
A short description of series [31]: Cell cycle arrest in human A549 cells assessed as accumulation at G2/M phase at 0.087 mM after 24 hrs by propidium iodide staining based flow cytometry (reference value: 26.63%). The series is classed as functional.
The subject of series [32] is A549. Kind of series: Induction of apoptosis in human A549 cells after 24 to 48 hrs by annexin V/propidium iodide double staining based flow cytometry. In kind it is functional, cell-based.
Series [33] deals with A549. The series can be described thus: Induction of morphological changes in human A549 cells assessed as change in mitochondrial morphology at 0.17 mM after 72 hrs by uranyl acetate/lead citrate staining based transmission electron microscopic imaging analysis. The series is classed as functional, cell-based.
Series [34] concerns A549. Kind of series: Induction of apoptosis in human A549 cells assessed as early apoptotic cells at 0.087 mM after 24 hrs by annexin V/propidium iodide double staining based flow cytometry (reference value: 0.91%). In kind it is functional.
Series [35] concerns A549. Kind of series: Induction of apoptosis in human A549 cells assessed as late apoptotic cells at 0.17 mM after 48 hrs by annexin V/propidium iodide double staining based flow cytometry (reference value: 0.08%). In kind it is functional.
Series [36] deals with A549. Kind of series: Induction of apoptosis in human A549 cells at 0.087 to 0.17 mM by annexin V/propidium iodide double staining based flow cytometry. The series is classed as functional, cell-based. Particulars: TDE = time-dependent effect.

`O=c1[nH]cc(F)c(=O)[nH]1` [FLUOROURACIL]: the IC50 (usually the concentration that gives 50% inhibition) at 24 h in series [1] is > 5000 µM. In addition, the IC50 came out at 2900 µM in series [2], 1200 µM in series [3] and 2000 µM in series [4].

Consider `O=C(Nc1ccccc1)c1nn(-c2ccccc2)/c(=N/NC(=O)C23CC4CC(CC(C4)C2)C3)s1`, for which the Ratio in the series with A549 [5] is listed as 18.781; in the series with A549 [6] it was 8.323; in the series on A549 [8], 12.327; with A549 [12] it was 13.73. Further, the Activity in the series on A549 [7] is 0%; in the series with A549 [15], 1.29 um; with A549 [17] it was 0%; in the series with A549 [19], 0.61%; in the series with A549 [20], 0.161 um; in the series with A549 [22], 0.142 um. Besides, the Activity in series [25] was 29.2%; in the series on A549 [26] it was 16.2%; in series [27], 68.9%; in the series on A549 [29], 0.134 um; in series [31], 1.97%; in the series with A549 [32], “Dose-dependent effect”. Moreover, the results for the Activity in the series with A549 [34], with A549 [35] and in the series with A549 [36] were 10.36%, 0.18% and “Tde”, respectively. Besides, the result in the series with A549 [9], in the series with A549 [10], in the series with A549 [11], with A549 [13], in the series with A549 [14] and in the series on A549 [16] was Active. Besides, the result in the series with A549 [18], in the series with A549 [28], in the series with A549 [30] and with A549 [33] was Active. Moreover, the IC50 at 24 h in series [1] was determined as 218 µM. Further, the IC50 amounted to 87 µM in series [2], 163 µM in series [3] and 168 µM in series [4]. Also, in the series with A549 [21], the OD was 0.021. For the same compound, the viability at 87 µM in the series with A549 [23] was 89%. Besides, the viability at 170 µM in the series with A549 [24] worked out at 83.6%.

Source of the values: ChEMBL document CHEMBL3868621, “A novel adamantane thiadiazole derivative induces mitochondria-mediated apoptosis in lung carcinoma cell line” (Bioorg Med Chem, 2017).
